Data taken from ChEMBL document CHEMBL1201862, “PubChem BioAssay data set” (2004).
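How tested: cells in 96-well plates exposed to compound for 48 hours at five concentrations. GI50 is the concentration that inhibits growth by half.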 Activity calls are given as the source filed them. No stated cut-off is given here; in the data, active = GI50 up to about 1.1 µM and inactive = higher.

Assays:
Test in all cases: NCI-60 cell line screen, 48 h
786-0 = tested on: 786-0
A498 = tested on: A498
A549 = tested on: A549
ACHN = tested on: ACHN
BT-549 = tested on: BT-549
CAKI-1 = tested on: CAKI-1
CCRF-CEM = tested on: CCRF-CEM
COLO 205 = tested on: COLO 205
DU-145 = tested on: DU-145
EKVX = tested on: EKVX
HCC 2998 = tested on: HCC 2998
HCT-116 = tested on: HCT-116
HCT-15 = tested on: HCT-15
HL-60 = tested on: HL-60
HOP-62 = tested on: HOP-62
HT-29 = tested on: HT-29
Hs-578T = tested on: Hs-578T
IGROV-1 = tested on: IGROV-1
K562 = tested on: K562
KM12 = tested on: KM12
LOX IMVI = tested on: LOX IMVI
M14 = tested on: M14
MCF7 = tested on: MCF7
MDA-MB-231 = tested on: MDA-MB-231
MDA-MB-435 = tested on: MDA-MB-435
MDA-N = tested on: MDA-N
MOLT-4 = tested on: MOLT-4
Malme-3M = tested on: Malme-3M
NCI-H226 = tested on: NCI-H226
NCI-H23 = tested on: NCI-H23
NCI-H460 = tested on: NCI-H460
NCI-H522 = tested on: NCI-H522
NCI/ADR-RES = tested on: NCI/ADR-RES
OVCAR-3 = tested on: OVCAR-3
OVCAR-4 = tested on: OVCAR-4
OVCAR-5 = tested on: OVCAR-5
OVCAR-8 = tested on: OVCAR-8
PC-3 = tested on: PC-3
RPMI-8226 = tested on: RPMI-8226
SF-268 = tested on: SF-268
SF-295 = tested on: SF-295
SF-539 = tested on: SF-539
SK-MEL-28 = tested on: SK-MEL-28
SK-MEL-2 = tested on: SK-MEL-2
SK-MEL-5 = tested on: SK-MEL-5
SK-OV-3 = tested on: SK-OV-3
SN12C = tested on: SN12C
SNB-19 = tested on: SNB-19
SNB-75 = tested on: SNB-75
SR = tested on: SR
SW-620 = tested on: SW-620
T47D = tested on: T47D
TK-10 = tested on: TK-10
U-251 = tested on: U-251
UACC-62 = tested on: UACC-62
UO-31 = tested on: UO-31
HOP-92 = tested on: HOP-92
RXF 393 = tested on: RXF 393
UACC-257 = tested on: UACC-257

Measured: GI50

C=CCSC(C)=O
inactive: 786-0 > 100 µM | A498 > 100 µM | A549 > 100 µM | ACHN > 100 µM | BT-549 > 100 µM | CAKI-1 > 100 µM | CCRF-CEM > 100 µM | COLO 205 > 100 µM | DU-145 > 100 µM | EKVX > 100 µM | HCC 2998 > 100 µM | HCT-116 > 100 µM | HL-60 > 100 µM | HOP-62 > 100 µM | HT-29 > 100 µM | Hs-578T > 100 µM | IGROV-1 > 100 µM | K562 > 100 µM | KM12 > 100 µM | LOX IMVI > 100 µM | M14 > 100 µM | MCF7 > 100 µM | MDA-MB-231 > 100 µM | MDA-MB-435 > 100 µM | MDA-N > 100 µM | MOLT-4 > 10 µM | Malme-3M > 100 µM | NCI-H226 > 100 µM | NCI-H23 > 100 µM | NCI-H460 > 100 µM | NCI-H522 98.9 µM | NCI/ADR-RES > 100 µM | OVCAR-3 > 100 µM | OVCAR-4 > 100 µM | OVCAR-5 > 100 µM | OVCAR-8 > 100 µM | PC-3 > 100 µM | RPMI-8226 > 100 µM | SF-268 > 100 µM | SF-295 > 100 µM | SF-539 > 100 µM | SK-MEL-28 > 100 µM | SK-MEL-2 > 100 µM | SK-MEL-5 > 100 µM | SK-OV-3 > 100 µM | SN12C > 100 µM | SNB-19 > 100 µM | SNB-75 > 100 µM | SR > 100 µM | SW-620 > 100 µM | T47D > 100 µM | TK-10 > 100 µM | U-251 > 100 µM | UACC-62 > 100 µM | UO-31 > 100 µM
> 100 µM: HCT-15

N#C/C(=C\c1ccc(Cl)cc1)c1nc2ccccc2c(=O)[nH]1
> 100 µM: HCT-15
inactive: 786-0 44.4 µM | A549 > 100 µM | ACHN 65.8 µM | BT-549 23.4 µM | CAKI-1 > 100 µM | CCRF-CEM > 100 µM | COLO 205 > 100 µM | DU-145 > 100 µM | EKVX > 100 µM | HCC 2998 > 100 µM | HCT-116 > 100 µM | HL-60 > 100 µM | HOP-62 33 µM | HOP-92 11 µM | HT-29 > 100 µM | Hs-578T 17.9 µM | IGROV-1 > 100 µM | K562 > 100 µM | KM12 > 100 µM | LOX IMVI > 100 µM | M14 > 100 µM | MCF7 > 100 µM | MDA-MB-231 33.8 µM | MDA-MB-435 > 100 µM | MDA-N > 100 µM | MOLT-4 > 100 µM | Malme-3M > 100 µM | NCI-H226 > 100 µM | NCI-H460 > 100 µM | NCI-H522 37.4 µM | NCI/ADR-RES > 100 µM | OVCAR-4 > 100 µM | OVCAR-5 > 100 µM | OVCAR-8 > 100 µM | PC-3 > 100 µM | RPMI-8226 > 100 µM | RXF 393 81.5 µM | SF-268 51.6 µM | SF-295 47.4 µM | SF-539 > 100 µM | SK-MEL-28 > 100 µM | SK-MEL-2 > 100 µM | SK-MEL-5 > 100 µM | SK-OV-3 > 100 µM | SN12C > 100 µM | SNB-19 85.9 µM | SNB-75 17.1 µM | SR > 100 µM | SW-620 > 100 µM | T47D > 100 µM | TK-10 76 µM | U-251 52.5 µM | UACC-257 > 100 µM | UACC-62 43.7 µM | UO-31 > 100 µM

Clc1cc(N/N=C(\c2ccccc2)c2ccccn2)ncn1
active: A549 0.55 µM | ACHN 0.0266 µM | CAKI-1 < 0.01 µM | CCRF-CEM < 0.01 µM | COLO 205 < 0.01 µM | DU-145 0.5 µM | EKVX 0.0215 µM | HCT-116 0.0277 µM | HOP-62 0.256 µM | HT-29 < 0.01 µM | IGROV-1 0.0308 µM | K562 0.0644 µM | LOX IMVI 0.281 µM | M14 0.0361 µM | MCF7 < 0.01 µM | MDA-MB-231 0.0252 µM | MDA-MB-435 1.02 µM | MOLT-4 0.0308 µM | Malme-3M < 0.01 µM | NCI-H226 0.246 µM | NCI-H23 0.0904 µM | NCI-H460 0.0262 µM | NCI-H522 < 0.01 µM | NCI/ADR-RES 0.0336 µM | OVCAR-3 0.0223 µM | OVCAR-5 0.361 µM | OVCAR-8 < 0.01 µM | PC-3 0.0728 µM | RPMI-8226 0.0438 µM | SF-268 0.489 µM | SF-295 0.502 µM | SF-539 0.197 µM | SK-MEL-5 0.254 µM | SK-OV-3 0.301 µM | SR 0.0942 µM | SW-620 0.0238 µM | T47D < 0.01 µM | TK-10 0.0363 µM | U-251 0.427 µM | UACC-257 0.0274 µM | UACC-62 0.308 µM | UO-31 0.324 µM
inactive: BT-549 4.21 µM | HCC 2998 5.94 µM | HOP-92 2.44 µM | Hs-578T 3.38 µM | KM12 1.22 µM | MDA-N 3.33 µM | OVCAR-4 10.9 µM | RXF 393 5.08 µM | SK-MEL-28 1.44 µM | SK-MEL-2 4.78 µM | SNB-19 1.85 µM | SNB-75 20.7 µM
